From ChEMBL document CHEMBL1133841 (Bioorg Med Chem Lett, 2001)
pIC50: −log10 of the molar value.

Biological target: T1, Serine-threonine protein phosphatase 2A regulatory subunit (Gallus gallus, UniProt Q8AWE3)
T1 sequence (Q8AWE3 whole entry): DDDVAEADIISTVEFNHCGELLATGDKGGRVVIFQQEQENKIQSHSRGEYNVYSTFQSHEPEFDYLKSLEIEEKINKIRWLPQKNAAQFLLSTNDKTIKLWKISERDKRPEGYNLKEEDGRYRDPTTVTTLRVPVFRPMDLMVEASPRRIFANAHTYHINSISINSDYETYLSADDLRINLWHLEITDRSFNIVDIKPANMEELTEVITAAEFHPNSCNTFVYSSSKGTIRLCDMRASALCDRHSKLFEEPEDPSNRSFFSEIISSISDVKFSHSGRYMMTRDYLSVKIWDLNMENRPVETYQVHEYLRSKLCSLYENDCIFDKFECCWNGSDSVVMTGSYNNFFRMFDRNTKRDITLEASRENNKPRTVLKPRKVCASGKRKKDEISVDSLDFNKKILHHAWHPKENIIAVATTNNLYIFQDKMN
Assay: Inhibitory concentration against protein phosphatase 2A (PP2A) was determined
Work on `C[C@H](C(=O)O)N1C(=O)[C@@H]2[C@H](C1=O)[C@H]1CC[C@@H]2O1` yielded a pIC50 of 3.82. For `O=C(O)[C@H](Cc1c[nH]cn1)N1C(=O)[C@@H]2[C@H](C1=O)[C@H]1CC[C@@H]2O1`, the pIC50 was 5.87. For `O=C(O)[C@H](Cc1ccccc1)N1C(=O)[C@@H]2[C@H](C1=O)[C@H]1CC[C@@H]2O1`, the pIC50 was less than 3.00. With `O=C(O)[C@@H](Cc1cnc[nH]1)N1C(=O)[C@@H]2[C@H](C1=O)[C@H]1CC[C@@H]2O1` the pIC50 was 6.09. With `O=C(O)CC[C@H](C(=O)O)N1C(=O)[C@@H]2[C@H](C1=O)[C@H]1CC[C@@H]2O1` the pIC50 was 4.49. Molecule `CC(C)C[C@H](C(=O)O)N1C(=O)[C@@H]2[C@H](C1=O)[C@H]1CC[C@@H]2O1` has a pIC50 of less than 3.00. For `C[C@@H](C(=O)O)N1C(=O)[C@@H]2[C@H](C1=O)[C@H]1CC[C@@H]2O1`, the pIC50 was less than 3.00. In the case of `CC(C)C[C@@H](C(=O)O)N1C(=O)[C@@H]2[C@H](C1=O)[C@H]1CC[C@@H]2O1`, the pIC50 was less than 3.00. Molecule `O=C(O)[C@@H](Cc1ccccc1)N1C(=O)[C@@H]2[C@H](C1=O)[C@H]1CC[C@@H]2O1` has a pIC50 of less than 3.00. `CSC[C@@H](C(=O)O)N1C(=O)[C@@H]2[C@H](C1=O)[C@H]1CC[C@@H]2O1` showed a pIC50 of less than 3.00. In the case of `O=C(O)[C@H](Cc1c[nH]c2ccccc12)N1C(=O)[C@@H]2[C@H](C1=O)[C@H]1CC[C@@H]2O1`, the pIC50 was 3.98. `O=C(O)[C@@H](Cc1c[nH]c2ccccc12)N1C(=O)[C@@H]2[C@H](C1=O)[C@H]1CC[C@@H]2O1` gave a pIC50 of 3.80.

Biological target: Serine/threonine-protein phosphatase PP1 catalytic subunit
Assay: Inhibitory concentration against protein phosphatase 1 was determined
In the case of `CCOC(=O)C1C(C(=O)O)[C@@H]2CC[C@H]1O2` (stereo not given in full), the pIC50 was 5.53.

Test system: not listed separately
Assay: Selectivity expressed as the ratio of PP2A/PP1 was determined
`O=C(O)CC[C@H](C(=O)O)N1C(=O)[C@@H]2[C@H](C1=O)[C@H]1CC[C@@H]2O1` gave a Selectivity of 3.

Biological target: T2, Serine-threonine protein phosphatase 2A regulatory subunit (Gallus gallus) (UniProt Q8AWE3)
T2 sequence (whole entry): T1 sequence (Q8AWE3 whole entry)
Assay: Selectivity expressed as the ratio of Protein phosphatase 2A/Protein phosphatase 1 was determined
`CCOC(=O)C1C(C(=O)O)[C@@H]2CC[C@H]1O2` (stereo not given in full) showed a Selectivity of 6.5.
